This is an account of results in patent publication US20030162694A1, “Novel treatment for pathological aggression” (priority 2002, published 2003).

The test system of test [1] is C57BL/6 mice. The conditions noted are these: chronic exposure (i.c.v.), low baseline aggressiveness (Lumley, Soc. Neurosci); cited from earlier work.
For test [2], the system named is individually housed mice. The settings on record: cited from earlier work.
The test system of test [3] is SJL mice. Description: social interaction test with a non-aggressive conspecific in long-term individually housed hyperaggressive mice (isolation-induced aggression). It is filed as in vivo. The conditions noted are these: for mice that attacked: vehicle 8 of 8. An excerpt: It is well-established that housing in isolation for significant periods of time will enhance the natural tendency of cage resident mice to attack an “intruder” mouse placed in their home cage. The isolation model in mice is the most appropriate model for screening drugs for anti-aggression potential. We tested whether acute exposure to the NAALADase inhibitor [2-[(pentafluorophenylmethyl) hydroxyphosphinyl]methyl-pentanedioic acid, administered prior to a social interaction test, would inhibit aggressive behavior in SJL mice that had been individually housed for eight months. [2-[(pentafluorophenylmethyl) hydroxyphosphinyl]methyl-pentanedioic acid (30 mg/kg, i.p.) was administered 30 minutes prior to a social interaction test to pharmacologically naive male mice which had been selected and behaviorally shaped to be hyperaggressive, and had consistently shown markedly aggressive behaviors in prior interactions with intruder mice. Administration of [2-[(pentafluorophenylmethyl) hydroxyphosphinyl]methyl-pentanedioic acid (30 mg/kg, i.p.) inhibited aggression, indicated by greater latencies to display tail-rattling, attack and bite, and fewer tail-rattling responses to a non-aggressive conspecific, relative to vehicle. In addition, fewer mice that received [2-[(pentafluorophenylmethyl) hydroxyphosphinyl]methyl-pentanedioic acid (30 mg/kg) initiated attack, relative to those that received vehicle.
We hypothesized that similar to the effects of NMDA antagonists, NAALADase inhibition and therefore increased NAAG, would inhibit aggressiveness under conditions of high basal levels of aggressiveness. We administered the NAALADase inhibitor [2-[(pentafluorophenylmethyl) hydroxyphosphinyl]methyl-pentanedioic acid prior to a social interaction test in a novel cage and measured behavioral responses to a non-aggressive conspecific; a novel cage was used to lower the levels of aggressiveness. The paradigm used was adapted from File (reviewed in Crawley, 2000).
Principles of laboratory animal care (NIH publication No. 85-23, revised 1985) were followed. […] In addition, these mice had been used to socially defeat mice that were used as subjects in numerous other studies. These highly aggressive SJL had no previous drug exposure. At the end of 8 months of training, subjects weighed 30-37 grams and had attack latencies of less than 30 sec when exposed to an obx. During the social interaction test, two C57BL/6 male mice (30-33 g; Jackson Laboratories), which were screened for non-aggressiveness and unfamiliar to the subjects, were used as stimulus mice.
[2-[(pentafluorophenylmethyl) hydroxyphosphinyl]methyl-pentanedioic acid, MW 390.2 (3 mg/kg or 30 mg/kg in 50 mM Hepes in 0.9% saline; pH 7.2; Guilford Pharmaceuticals) or vehicle (50 mM Hepes in 0.9% saline; pH 7.2) was administered intraperitoneally (i.p.; 10 ml/kg) 30 min. prior to a 4 min. social interaction test. Subject mice were placed in a novel cage (48×27×20 cm) along with a non-aggressive male conspecific and tested under low illumination (red lights) during the dark phase of their cycle. Methods for various social interaction tests reviewed in Crawley et al. (2000). Tests were videotaped and behaviors were scored using a computer program (Hindsight, Scott Weiss, UK), by two observers blind to the treatment. Behavioral measures included 1) measures of aggressiveness or threat: attack, bite, chase or follow, grooming conspecific, tail rattling 2) measures of exploratory and locomotor activity: walking, rearing, digging, 3) measures of defensiveness: defensive posture (crouch, upright) and flight. Details on behavioral measurements may be found in Grant and McIntosh, 1963; Lumley et al., 2000; Crawley, 2000.
One-way analysis of variance was performed for each behavioral measure with drug dose as the independent factor. Data were further probed using Dunnet=s test.

For test [4], the system named is mice. The settings on record: mice (McAllister, 1990); cited from earlier work.

For `O=C(O)CCC(CP(=O)(O)O)C(=O)O` (stereo not shown) [2-PMPA, 2-(phosphonomethyl)-pentanedioic acid], the aggressiveness entry in test [1] was “increase aggressiveness”.

Take `c1ccc(C2(N3CCCCC3)CCCCC2)cc1` [PCP, phencyclidine]: the aggressiveness entry in test [2] (individually housed mice (Wilmot et al., 1987)) is “increased aggressiveness”. Further, in test [2] (individually housed mice), the “number of mice that displayed attack” value is given as “reduced the number of mice that displayed attack”.

Consider `O=C(O)CCC(CP(=O)(O)Cc1c(F)c(F)c(F)c(F)c1F)C(=O)O` (stereo not shown) [[2-[(pentafluorophenylmethyl) hydroxyphosphinyl]methyl-pentanedioic acid], for which the results for the mice that attacked in test [3] (3 mg/kg) and in test [3] (30 mg/kg) were 7 of 10 and 4 of 9, respectively. In addition, the latency to attack entry in test [3] (30 mg/kg i.p., 30 min before 4 min test, relative to vehicle, F (2, 26)=2.36) is on record as “increased latencies”. Also, the latency to bite result in test [3] (30 mg/kg i.p., 30 min before 4 min test, relative to vehicle, F (2, 26)=2.82) is reported as “increased latencies”. In addition, in test [3] (30 mg/kg i.p., 30 min before 4 min test, relative to vehicle, F (2, 26)=7.41), the “latency to display tail-rattling” value is listed as “increased latencies”. For the same compound, the “number of tail-rattling responses” value in test [3] (30 mg/kg, relative to vehicle, F (2, 26)=3.66) is “tended to display fewer tail-rattling responses”. Also, the “percent of mice that attacked the conspecific” value in test [3] (30 mg/kg, vehicle 100%) was determined as 44%. In addition, the defensive responses entry in test [3] (3 or 30 mg/kg i.p., few mice displayed any) is on record as “no effect”. The number of attacks result in test [3] (in mice displaying the behavior, 3 or 30 mg/kg i.p., F (2,18)=0.11) was “no effect”. For the same compound, in test [3] (in mice displaying the behavior, 3 or 30 mg/kg i.p., F (2, 26)=0.31), the number of bites entry is listed as “no effect”. Moreover, the “number of attacks in the 4 of 9 treated mice that attacked” value in test [3] (relative to vehicle-treated mice, not significant) is reported as “tended to have more attacks”. For the same compound, the “tail rattling responses as stated in the discussion” value in test [3] (relative to vehicle, dose not stated) is recorded as “more tail rattling responses than vehicle”.

With `C[C@]12N[C@H](Cc3ccccc31)c1ccccc12` [dizocilpine], in test [4], the aggression result is listed as “increased aggression”.
